# Where two headings read alike, the source gives them in different places.
# B1: IFNβ: Recombinant mouse IFNβ (PBL Interferon Source) (protein, UniProt P01575 22-182, looked up)
# Interferon beta: INYKQLQLQERTNIRKCQELLEQLNGKINLTYRADFKIPMEMTEKMQKSYTAFAIQEMLQNVFLVFRNNFSSTGWNETIVVRLLDELHQQTVFLKTVLEEKQEERLTWEMSSTALHLKSYYWRVQRYLKLMKYNSYAWMVVRAEIFRNFLIIRRLTRNFQN
# What was measured:
# [1] = system: cultured human glioma cells; assay: Initial viral spread in cultured human glioma cells by flow cytometric analysis; type: cell-based
# [2] = system: RRV
# [3] = system: Tu2449 cells; assay: Bortezomib plus vector, intracranial Tu2449 glioma survival; type: in vivo, mouse; settings: Bortezomib 1 mg/kg IP every 7 days; vector 6.3E4 TU/g IC; 5-FC cycles
# Method: On Day 0 and every 7 days, Groups 3 and 4 received Bortezomib treatment (1 mg/kg; 25 μg/mouse) IP. […] Survival was assessed for at least 4 cycles.
# [4] = system: cultured human plasmacytoid dendritic cells; assay: IFN production after in vitro stimulation of cultured human plasmacytoid dendritic cells; type: cell-based; design: key: +: positive or negative effects have been observed; −: positive or negative effects have been observed
# [5] = system: cultured human glioma cells; type: cell-based; design: key: +: positive or negative effects have been observed
# [6] = system: intracranial tumor models; assay: In vivo screening, IC tumor model; settings: mouse
# [7] = Vector copies in tissues after intracranial injection with or without steroid; type: in vivo, mouse; settings: right cerebrum, day 10; p<0.0001
# Method: (§1) Dosing Procedures. For Group 3 only, methylprednisolone acetate (Depo-Medrol), 400 mg/kg, was administered subcutaneously (SC) at day −3.
# Toca 511 or vehicle was administered by stereotaxic injection into the right frontal lobe. After anesthetizing the mice and preparing the skull, a small burr hole was drilled through the bone at coordinates AP=+0.5 mm and ML=−2.5 mm from bregma. […] After a hold of 5 minutes, the syringe was withdrawn, the hole sealed with bone wax, the skin closed, and the animal recovered from surgery. To minimize discomfort, ketoprofen was administered SC.
# Tissue collection. On day 10, all animals were euthanized and selected tissues and fluids collected using disposable equipment to minimize possible cross-contamination of vector negative by vector positive tissues. […] Assays were performed in triplicate.
# [8] = Pilot study of white blood cell count suppression; type: in vivo; settings: 400 mg/kg SC
# Method: as §1
# [9] = system: U-87MG; settings: 0.1 and 1 μM, 28 days
# [10] = system: T98G; settings: 0.1 and 1 μM, 28 days
# [11] = system: parental CT26 cells; assay: Viral replication kinetics in CT26 cells with exogenous IFNα; settings: 1,340 units/mL daily; MOI 0.1 and 1
# [12] = system: TLR3, 7, 8, 9; settings: cited from earlier work
# [13] = system: recurrent anaplastic oligodendroglioma; assay: Patient dog with spontaneous recurrent malignant glioma; type: in vivo; settings: second cycle, 160 mg/kg/day, after fifth day
# Method: The tumor measured approximately 13 cm^3, and caused major lateral ventricle compression and significant midline shift. […] ProHance® (gadoteridol) was added to Toca 511 prior to injection to allow visualization of delivery by MRI. The volume of distribution of the vector was estimated to be approximately 10-12% of the tumor volume.
# The dog was treated with 5-FC at a divided dose of 130 mg/kg/day, by mouth, three times daily with food for 5 days. The dose was increased to 160 mg/kg/day for 2 more days (7 days of 5-FC total). […] After 21 days of viral spread, a second cycle of 5-FC was initiated at the higher dose of 160 mg/kg/day (divided, three times a day with food).
# The subject became more alert, active and remained clinically stable 13 weeks after injection of vector. The subject succumbed to a gastro-intestinal bleed at 15+ weeks, related to the extended administration of high dose steroids, and unrelated to the tumor. The estimated lifespan of the dog was no more than 3-4 weeks at the time of initial injection of the vector.
# [14] = system: parental Tu2449 cells; assay: Viral replication kinetics in Tu2449 cells with exogenous IFNβ; settings: 500 units/mL daily; MOI 0.1 and 1
molecule,measurement,setting,value
C#Cc1cccc(Nc2ncnc3cc(OC)c(OCCCCCCC(=O)NO)cc23)c1 [CUDU-101],Efficacy,[1],−
CC(C)C[C@H](NC(=O)[C@H](Cc1ccccc1)NC(=O)c1cnccn1)B(O)O [Bortezomib],activity or benefit observed in the screening experiments,[2],activity was observed
same,"survival of Bortezomib and vector compared to vector, vehicle, or Bortezomib alone",[3],statistically significant survival advantage
same,Efficacy,[4],+
O=C1Nc2ccc3ncsc3c2/C1=C/c1cnc[nH]1 [Imidazolo-oxindole],Efficacy,[1],−
O=C(NCCCNc1nc(Nc2cccc(NC(=O)N3CCCC3)c2)ncc1I)c1cccs1 [BX795],activity or benefit observed in the screening experiments,[2],activity was observed
same,Efficacy,[5],+
CCc1c2c(nc3ccc(OC(=O)N4CCC(N5CCCCC5)CC4)cc13)-c1cc3c(c(=O)n1C2)COC(=O)[C@]3(O)CC [Irinotecan],Outcome summary IC tumor model,[6],No survival improvement
CCN(CC)Cc1ccc2cc(COC(=O)Nc3ccc(C(=O)NO)cc3)ccc2c1 [ITF2357],Efficacy,[1],−
Nc1ccccc1NC(=O)c1ccc(CNC(=O)OCc2cccnc2)cc1 [MS-275],activity or benefit observed in the screening experiments,[2],activity was observed
same,Efficacy,[5],+
same,Efficacy,[1],−
CC(=O)OCC(=O)[C@@]1(O)CC[C@H]2[C@@H]3C[C@H](C)C4=CC(=O)C=C[C@]4(C)[C@H]3[C@@H](O)C[C@@]21C [methylprednisolone acetate],increase of vector copies with steroids over no steroid,[7],more than 40 fold
same,duration of white blood cell count suppression below normal range,[8],at least 10 days
C[C@@H]1C[C@H]2[C@@H]3CCC4=CC(=O)C=C[C@]4(C)[C@@]3(F)[C@@H](O)C[C@]2(C)[C@@]1(O)C(=O)CO [Dexamethasone],cell toxicity,[9],No cell toxicity was observed
same,cell toxicity,[10],No cell toxicity was observed
same,Efficacy,[1],+
IFNα,effect on viral spread (% GFP positive cells),[11],attenuates viral spread
CCN(CC)CCCC(C)Nc1ccnc2cc(Cl)ccc12 (centres unmarked) [Chloroquine],IC50,"[12]; read-out: Dosage/IC50, head does not say whether dosage or IC50",20 µM
same,Dosage/IC50,[12]; same value in mass units,10 µg/mL
Cc1cc(Cl)ccc1OCCCC(=O)NO [Droxinostat],Efficacy,[1],−
"Nc1nc(=O)[nH]cc1F [5-FC, 5-fluorocytosine]",adverse event stopping the drug,[13],development of rash
CC#C[C@]1(O)CC[C@H]2[C@@H]3CCC4=CC(=O)CCC4=C3[C@@H](c3ccc(N(C)C)cc3)C[C@@]21C [Mifepristone],activity or benefit observed in the screening experiments,[2],activity was observed
same,Efficacy,[1],+
N#CCNC(=O)c1ccc(-c2ccnc(Nc3ccc(N4CCOCC4)cc3)n2)cc1 [Cyt387],Efficacy,[1],−
B1,effect on viral spread (% GFP positive cells),[14],attenuates viral spread
